From patent publication US20250320213A1, “Nitrogen-Containing Heterocyclic Compounds” (Pfizer Inc., priority 2024, published 2025)

Experiments:
[1] = biological target: T1, STAT6 (Homo sapiens, UniProt P42226); assay: STAT6 Reporter Luciferase Assay (IL-13 stimulated HaCaT keratinocyte NanoLuc reporter cells); format: cell-based; details: IL-13 stimulated HaCaT STAT6 NanoLuc reporter cells; read-out: Reporter EC50
T1 construct: stably transfected HaCaT keratinocyte cell line, which expresses NanoLuc luciferase reporter gene under the transcriptional control of the STAT6 responsive promoter; endogenous in cells; host or cells: HaCaT keratinocyte reporter cell line (stably transfected with a NanoLuc reporter)
T1 sequence (P42226 1-847): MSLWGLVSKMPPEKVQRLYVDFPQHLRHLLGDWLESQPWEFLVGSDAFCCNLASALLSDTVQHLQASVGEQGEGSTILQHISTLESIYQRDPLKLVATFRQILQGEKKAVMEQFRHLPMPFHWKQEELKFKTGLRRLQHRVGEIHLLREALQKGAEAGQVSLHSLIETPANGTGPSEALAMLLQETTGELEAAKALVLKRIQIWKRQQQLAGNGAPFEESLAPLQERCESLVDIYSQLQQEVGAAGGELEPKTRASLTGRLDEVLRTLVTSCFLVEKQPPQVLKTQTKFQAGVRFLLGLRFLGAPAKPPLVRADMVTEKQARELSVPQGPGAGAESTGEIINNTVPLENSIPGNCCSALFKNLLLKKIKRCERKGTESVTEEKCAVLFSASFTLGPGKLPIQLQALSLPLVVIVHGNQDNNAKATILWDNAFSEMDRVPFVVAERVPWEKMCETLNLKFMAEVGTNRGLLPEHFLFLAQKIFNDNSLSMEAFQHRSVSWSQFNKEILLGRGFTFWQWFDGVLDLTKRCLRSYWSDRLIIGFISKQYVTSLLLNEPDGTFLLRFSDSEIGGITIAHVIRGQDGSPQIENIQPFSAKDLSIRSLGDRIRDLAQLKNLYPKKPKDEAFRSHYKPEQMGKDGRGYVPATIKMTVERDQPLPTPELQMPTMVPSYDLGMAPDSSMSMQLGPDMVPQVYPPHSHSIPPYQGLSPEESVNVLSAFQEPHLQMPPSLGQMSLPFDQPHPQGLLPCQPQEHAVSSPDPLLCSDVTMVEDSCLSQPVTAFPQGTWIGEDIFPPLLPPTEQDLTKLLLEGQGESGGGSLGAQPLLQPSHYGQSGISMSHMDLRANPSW
Outline: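 Cells were plated overnight, washed, exposed to compound for two hours, stimulated with IL-13 (0.12 nM final) for four hours at 37 °C, and then lysed with Nano-Glo substrate for 15 min before luminescence reading.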

[2] = system: CCL17 secretion in peripheral human whole blood; assay: Human Whole Blood (HWB) CCL17 TR-FRET Assay (IL-13 stimulated CCL17 secretion); format: cell-based; details: Homo sapiens, 48 h, human whole blood
Outline: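 Heparinized peripheral human whole blood was preincubated with compound (11-point, 3-fold series, duplicate) for 2 h at 37 °C, then stimulated with IL-13 at 10 ng/mL final for 48 h at 37 °C. Secreted CCL17 in the serum was quantified by TR-FRET sandwich immunoassay (665/615 nm ratio, 16 h RT); IC50 derived.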

| Structure (SMILES) | EC50 [1] [nM] | IC50 ([2]; 10 ng/mL IL13, 48 hours) [nM] | IC50 ([2]; IL-13 10 ng/mL) [nM] |
| --- | --- | --- | --- |
| CC(C)n1nc(C(=O)NCc2ccc(NC(=O)N3CC4(CCN(C)CC4)C3)c(F)c2)c2c1[C@@H](C)CN(c1ccc(-n3ccccc3=O)cn1)C2 [Example 632, (S)-N-(3-fluoro-4-(7-methyl-2,7-diazaspiro[3.5]nonane-2-carboxamido)benzyl)-1-isopropyl-7-methyl-5-(2-oxo-2H-[1,3′-bipyridin]-6′-yl)-4,5,6,7-tetrahydro-1H-pyrazolo[4,3-c]pyridine-3-carboxamide] | 5 | 39 | – |
| CC(C)n1nc(C(=O)NCc2ccc(NC(=O)N3CC4(CCN(C)CC4)C3)cc2)c2c1[C@@H](C)CN(c1ccc(-n3ccccc3=O)cn1)C2 [Example 634, (S)-1-isopropyl-7-methyl-N-(4-(7-methyl-2,7-diazaspiro[3.5]nonane-2-carboxamido)benzyl)-5-(2-oxo-2H-[1,3′-bipyridin]-6′-yl)-4,5,6,7-tetrahydro-1H-pyrazolo[4,3-c]pyridine-3-carboxamide] | 4 | 29 | – |
| CC(C)n1nc(C(=O)NCc2ccc(NC(=O)N(C)C)cc2)c2c1[C@@H](C)CN(c1ccc(C(=O)N(C)CC3CCN(C)CC3)cc1)C2 [Example 635, (S)-N-(4-(3,3-dimethylureido)benzyl)-1-isopropyl-7-methyl-5-(4-(methyl((1-methylpiperidin-4-yl)methyl)carbamoyl)phenyl)-4,5,6,7-tetrahydro-1H-pyrazolo[4,3-c]pyridine-3-carboxamide] | 14 | 71 | – |
| CC(C)n1nc(C(=O)NCc2ccc(NC(=O)N(C)C)cc2)c2c1[C@@H](C)CN(c1ccc(C(=O)N(C)CC3CCNCC3)cc1)C2 [Example 637, (S)-N-(4-(3,3-dimethylureido)benzyl)-1-isopropyl-7-methyl-5-(4-(methyl(piperidin-4-ylmethyl)carbamoyl)phenyl)-4,5,6,7-tetrahydro-1H-pyrazolo[4,3-c]pyridine-3-carboxamide] | 13 | 48 | – |
| CC(C)n1nc(C(=O)NCc2ccc(NC(=O)N3CCNCC3)nc2)c2c1[C@@H](C)CN(c1ccc(C(=O)N(C)C)cc1)C2 [Example 699, (S)-5-(4-(dimethylcarbamoyl)phenyl)-1-isopropyl-7-methyl-N-((6-(piperazine-1-carboxamido)pyridin-3-yl)methyl)-4,5,6,7-tetrahydro-1H-pyrazolo[4,3-c]pyridine-3-carboxamide] | 4 | 27 | – |
| CC(C)n1nc(C(=O)NCc2ccc(NC(=O)N3CCNCC3)cn2)c2c1[C@@H](C)CN(c1ccc(C(=O)N(C)C)cc1)C2 [Example 700, (S)-5-(4-(dimethylcarbamoyl)phenyl)-1-isopropyl-7-methyl-N-((5-(piperazine-1-carboxamido)pyridin-2-yl)methyl)-4,5,6,7-tetrahydro-1H-pyrazolo[4,3-c]pyridine-3-carboxamide] | 5 | 22 | – |
| CC(C)n1nc(C(=O)NCc2ccc(NC(=O)N(C)C)cc2)c2c1[C@@H](C)CN(c1ccc(C(=O)N3CCN(C)CC3)cc1)C2 [Example 706, (S)-N-(4-(3,3-dimethylureido)benzyl)-1-isopropyl-7-methyl-5-(4-(4-methylpiperazine-1-carbonyl)phenyl)-4,5,6,7-tetrahydro-1H-pyrazolo[4,3-c]pyridine-3-carboxamide] | 27 | – | 191 |
| CC(C)n1nc(C(=O)NCc2ccc(NC(=O)N3CCN(C)CC3)c(F)c2)c2c1[C@@H](C)CN(c1ccc(-n3ccccc3=O)cc1)C2 [Example 715, (S)-N-(3-fluoro-4-(4-methylpiperazine-1-carboxamido)benzyl)-1-isopropyl-7-methyl-5-(4-(2-oxopyridin-1(2H)-yl)phenyl)-4,5,6,7-tetrahydro-1H-pyrazolo[4,3-c]pyridine-3-carboxamide] | 5 | – | 68 |

Now those with a lower EC50 [1], led by results:

| EC50 [1] [nM] | IC50 ([2]; 10 ng/mL IL13, 48 hours) [nM] | IC50 ([2]; IL-13 10 ng/mL) [nM] | Structure (SMILES) |
| --- | --- | --- | --- |
| 1 | 24 | – | CC(C)n1nc(C(=O)NCc2ccc(NC(=O)N3CCN(C)CC3)cc2)c2c1[C@@H](C)CN(c1ccc(-n3nccn3)cn1)C2 [Example 631, (S)-5-(5-(2H-1,2,3-triazol-2-yl)pyridin-2-yl)-1-isopropyl-7-methyl-N-(4-(4-methylpiperazine-1-carboxamido)benzyl)-4,5,6,7-tetrahydro-1H-pyrazolo[4,3-c]pyridine-3-carboxamide] |
| 2 | 13 | – | CC(C)n1nc(C(=O)NCc2ccc(NC(=O)N3CCC4(CC3)CN(C)C4)cc2)c2c1[C@@H](C)CN(c1ccc(-n3ccccc3=O)cn1)C2 [Example 633, (S)-1-isopropyl-7-methyl-N-(4-(2-methyl-2,7-diazaspiro[3.5]nonane-7-carboxamido)benzyl)-5-(2-oxo-2H-[1,3′-bipyridin]-6′-yl)-4,5,6,7-tetrahydro-1H-pyrazolo[4,3-c]pyridine-3-carboxamide] |
| 3 | 33 | – | CC(C)n1nc(C(=O)NCc2ccc(NC(=O)N(C)C)cc2)c2c1[C@@H](C)CN(c1ccc(C(=O)N(C)CCN3CCOCC3)cc1)C2 [Example 636, (S)-N-(4-(3,3-dimethylureido)benzyl)-1-isopropyl-7-methyl-5-(4-(methyl(2-morpholinoethyl)carbamoyl)phenyl)-4,5,6,7-tetrahydro-1H-pyrazolo[4,3-c]pyridine-3-carboxamide] |
| 1 | 4 | – | COCC1(N)CCN(C(=O)Nc2ccc(CNC(=O)c3nn(C(C)C)c4c3CN(c3ccc(C(=O)N(C)C)cc3)C[C@@H]4C)cc2)CC1 [Example 638, (S)-N-(4-(4-amino-4-(methoxymethyl)piperidine-1-carboxamido)benzyl)-5-(4-(dimethylcarbamoyl)phenyl)-1-isopropyl-7-methyl-4,5,6,7-tetrahydro-1H-pyrazolo[4,3-c]pyridine-3-carboxamide] |
| 1 | 8 | – | COCC1(N)CCN(C(=O)Nc2ccc(CNC(=O)c3nn(C(C)C)c4c3CN(c3ccc(C(=O)N(C)C)cc3)C[C@@H]4C)cc2F)CC1 [Example 639, (S)-N-(4-(4-amino-4-(methoxymethyl)piperidine-1-carboxamido)-3-fluorobenzyl)-5-(4-(dimethylcarbamoyl)phenyl)-1-isopropyl-7-methyl-4,5,6,7-tetrahydro-1H-pyrazolo[4,3-c]pyridine-3-carboxamide] |
| 1 | 24 | – | CC(C)n1nc(C(=O)NCc2ccc(NC(=O)N3CCN(C)CC3)cc2)c2c1[C@@H](C)CN(c1ccc(-c3ncnn3C3CC3)cn1)C2 [Example 649, (S)-5-(5-(1-cyclopropyl-1H-1,2,4-triazol-5-yl)pyridin-2-yl)-1-isopropyl-7-methyl-N-(4-(4-methylpiperazine-1-carboxamido)benzyl)-4,5,6,7-tetrahydro-1H-pyrazolo[4,3-c]pyridine-3-carboxamide] |
| 1 | – | 8 | COCCC1(N)CCN(C(=O)Nc2ccc(CNC(=O)c3nn(C(C)C)c4c3CN(c3ccc(C(=O)N(C)C)cc3)C[C@@H]4C)cc2)CC1 [Example 708, (S)-N-(4-(4-amino-4-(2-methoxyethyl)piperidine-1-carboxamido)benzyl)-5-(4-(dimethylcarbamoyl)phenyl)-1-isopropyl-7-methyl-4,5,6,7-tetrahydro-1H-pyrazolo[4,3-c]pyridine-3-carboxamide] |
| 0.5 | – | 18 | CC(C)n1nc(C(=O)NCc2ccc(NC(=O)N3CCN(C)CC3)c(F)c2)c2c1[C@@H](C)CN(c1ccc(C(=O)N3Cc4cccnc4C3)cc1)C2 [Example 711, (S)-5-(4-(6,7-dihydro-5H-pyrrolo[3,4-b]pyridine-6-carbonyl)phenyl)-N-(3-fluoro-4-(4-methylpiperazine-1-carboxamido)benzyl)-1-isopropyl-7-methyl-4,5,6,7-tetrahydro-1H-pyrazolo[4,3-c]pyridine-3-carboxamide] |
| 3 | – | 64 | CC(C)n1nc(C(=O)NCc2ccc(NC(=O)N3CCN(C)CC3)cc2Cl)c2c1[C@@H](C)CN(c1ccc(C(=O)N(C)C)cc1)C2 [Example 712, (S)-N-(2-chloro-4-(4-methylpiperazine-1-carboxamido)benzyl)-5-(4-(dimethylcarbamoyl)phenyl)-1-isopropyl-7-methyl-4,5,6,7-tetrahydro-1H-pyrazolo[4,3-c]pyridine-3-carboxamide] |
